Read-outs that look alike come from different tables or passages of the source.
Columns and labels:
[1] = tested on: T. cruzi (Dm28c-Luc) trypomastigotes; assay: microbe, parasite or virus in culture; assay type: cell-based, Trypanosoma cruzi; conditions: for IC50 / IC90: Trypanosoma cruzi, 24 h, Dm28c-Luc, mean ± SD; for IC50: read-out: Trypanocidal Activity Trypomastigotes IC50; for IC90: read-out: Trypanocidal Activity Trypomastigotes IC90; for Trypomastigotes SI (CC50 of Vero cells/IC50): selectivity index vs Vero cells
Method: The screening assays were performed with T. cruzi clone Dm28c (TcI) genetically modified to express luciferase gene (Dm28c-Luc), kindly provided by Dr. Cristina Henriques. Trypomastigotes were isolated from T. cruzi-infected Vero cell monolayers (10:1 parasites/host cell ratio). On the 4th day post-infection (dpi), free trypomastigotes in the culture supernatant were harvested, and the number of parasites/mL was quantified in a Neubauer chamber.
The trypanocidal activity of the pyrazole-thiazoline derivatives was evaluated against trypomastigote and intracellular amastigote forms of T. cruzi (Dm28c-Luc). Tissue-derived trypomastigotes (1 × 10^6 parasites/well) were incubated with pyrazole-thiazoline derivatives and Bz in different concentrations (0.41–100 µM) for 24 h at 37 °C in a humidified atmosphere and 5% CO2. The parasite viability was determined by the addition of luciferin (300 µg/mL), followed by luminescence detection on the GloMax microplate reader (Promega Corporation, Madison, WI, USA).
(§1) After 72 h of treatment, luciferin (300 µg/mL) was added to the culture, and the viability of the parasites was assessed by reading the luminescent signal on the GloMax reader (Promega Corporation, Madison, WI, USA). Controls were also performed in non-toxic concentrations of DMSO (≤ 1%). The concentration that reduces the number of viable parasites by 50% (IC50) or 90% (IC90) was calculated by linear regression. The selectivity index (SI) was calculated as CC50/IC50 for each parasite form.

[2] = tested on: T. cruzi (Dm28c-Luc) intracellular amastigotes; assay: Trypanocidal activity against intracellular amastigotes in infected Vero cell monolayers; assay type: cell-based, Trypanosoma cruzi; conditions: for IC50 / IC90: Trypanosoma cruzi; for IC50: Vero; for IC90: read-out: Trypanocidal Activity Intracellular Amastigotes IC90; for Intracellular Amastigotes SI (CC50 of Vero cells/IC50): selectivity index vs Vero cells
Method: The susceptibility of intracellular amastigotes to pyrazole-thiazoline derivatives (series 1 and 2) was evaluated using 24 h T. cruzi-infected Vero cell monolayers (10:1 parasite/host cell ratio). Then, the cultures were washed with PBS to remove non-internalized parasites, and 200 μL of fresh medium with a serial dilution of pyrazole-thiazoline derivatives and Bz (0.41–100 µM) was added for 72 h at 37 °C.
as §1

[3] = Cytotoxicity in vitro assay (CellTiter-Glo); assay type: cell-based; conditions: African green monkey, Vero cells, mean ± SD
Method: Vero cells, obtained from the Rio de Janeiro Cell Bank (BCRJ code 0245), were dissociated with trypsin–EDTA solution (0.025%), and maintained in RPMI 1640 medium supplemented with 10% fetal bovine serum (FBS) at 37 °C in a humidified atmosphere of 5% CO2.
The compound toxicity was evaluated in Vero cell cultures. Briefly, Vero cells were seeded in 96-well white culture plates at a density of 1.5 × 10^4 cells/well for 24 h at 37 °C and 5% CO2. Thereafter, the cell monolayers were washed with phosphate-buffered saline (PBS) and 200 μL of fresh medium with a serial dilution of the pyrazole-thiazoline derivatives and Bz (1.9–500 µM) added. The cell viability was determined by luminescent assay using the CellTiter-Glo Kit (Promega Corporation, Madison, WI, USA) based on the ATP level. After 72 h of treatment, 20 μL of CellTiter-Glo solution was added per well, and cultures were kept for 2 min under agitation. The luminescent signal was read on the GloMax reader (Promega Corporation, Madison, WI, USA). The concentration of compounds that reduced 50% of cell viability (CC50) was calculated by linear regression. At least three independent assays were performed in duplicate.

[4] = 72 h, Dm28c-Luc in Vero cells, 72 h, mean ± SD, read-out: Trypanocidal Activity Intracellular Amastigotes IC50
[5] = pIC50 = −log IC50, Dm28c-Luc clone, read-out: Intracellular Amastigotes pIC50 (converted)
[6] = Dm28c-Luc in Vero cells, 72 h, mean ± SD

SMILES | IC50 [1] [µM] | IC90 [1] [µM] | Trypomastigotes SI (CC50 of Vero cells/IC50) [1] | IC50 [2, 4] [µM] | IC50 [2, 5] [µM] | IC90 [2, 6] [µM] | Intracellular Amastigotes SI (CC50 of Vero cells/IC50) [2] | CC50 at 72 h [3] [µM] | melting point [°C]
Nc1c(C2=NCCS2)cnn1-c1ccccc1 [Compound 1a, 2-(5-amino-1-phenyl-1H-pyrazol-4-yl)-4,5-dihydrothiazole] | 66.4 ± 2.7 | > 100 | 3.7 | 80.7 ± 3.9 | 81.3 | > 100 | 3.1 | 248 ± 22 | 176 to 178
Nc1c(C2=NCCS2)cnn1-c1cccc(Cl)c1 [Compound 1b, 2-(5-amino-1-(3-chlorophenyl)-1H-pyrazol-4-yl)-4,5-dihydrothiazole] | 96.9 ± 3.1 | > 100 | >5.2 | 95.7 ± 4.8 | 97.7 | > 100 | 5.2 | > 500 | 186 to 189
Nc1c(C2=NCCS2)cnn1-c1ccc(Cl)cc1Cl [Compound 1c, 2-(5-amino-1-(2,4-dichlorophenyl)-1H-pyrazol-4-yl)-4,5-dihydrothiazole] | > 100 | > 100 | <5 | > 100 | > 100 | > 100 | <5 | > 50 | 209 to 212
Nc1c(C2=NCCS2)cnn1-c1cc(Cl)cc(Cl)c1 [Compound 1d, 2-(5-amino-1-(3,5-dichlorophenyl)-1H-pyrazol-4-yl)-4,5-dihydrothiazole] | > 100 | > 100 |  | 63.2 ± 5.4 | 64.6 | > 100 | 6.6 | 416 ± 34.6 | 232 to 234
Nc1c(C2=NCCS2)cnn1-c1ccc(Cl)c(Cl)c1 [Compound 1e, 2-(5-amino-1-(3,4-dichlorophenyl)-1H-pyrazol-4-yl)-4,5-dihydrothiazole] | > 100 | > 100 | <5 | > 100 | > 100 | > 100 | <5 | > 500 | 279 to 282
Nc1c(C2=NCCS2)cnn1-c1ccc(Cl)cc1 [Compound 1f, 2-(5-amino-1-(4-chlorophenyl)-1H-pyrazol-4-yl)-4,5-dihydrothiazole] | 88.3 ± 7.1 | > 100 |  | > 100 | > 100 | > 100 |  | > 500 | 283 to 285
Nc1c(C2=NCCS2)cnn1-c1ccc(F)cc1 [Compound 1g, 2-(5-amino-1-(4-fluorophenyl)-1H-pyrazol-4-yl)-4,5-dihydrothiazole] | > 100 | > 100 | <5 | 96.3 ± 2.7 | 97.7 | > 100 | 5.6 | 483 ± 16.6 | 244 to 246
Nc1c(C2=NCCS2)cnn1-c1cccc(F)c1 [Compound 1h, 2-(5-amino-1-(3-fluorophenyl)-1H-pyrazol-4-yl)-4,5-dihydrothiazole] | > 100 | > 100 | <5 | > 100 | > 100 | > 100 | <5 | > 500 | 230 to 232
Nc1c(C2=NCCS2)cnn1-c1ccc(Br)cc1 [Compound 1i, 2-(5-amino-1-(4-bromophenyl)-1H-pyrazol-4-yl)-4,5-dihydrothiazole] | 49.3 ± 4.7 | > 100 | >10.1 | > 100 | > 100 | > 100 | <5 | > 500 | 282 to 284
Nc1c(C2=NCCS2)cnn1-c1cccc(Br)c1 [Compound 1j, 2-(5-amino-1-(3-bromophenyl)-1H-pyrazol-4-yl)-4,5-dihydrothiazole] | 52.3 ± 3.4 | > 100 | >9.5 | 26.6 ± 3.1 | 26.9 | > 100 | >18.7 | > 500 | 171 to 173
COc1ccc(-n2ncc(C3=NCCS3)c2N)cc1 [Compound 1k, 2-(5-amino-1-(4-methoxyphenyl)-1H-pyrazol-4-yl)-4,5-dihydrothiazole] | 12 ± 3.5 | 93.4 ± 5.5 | >39.9 | 79.1 ± 4.4 | 79.4 | 97.3 ± 4.7 | >6.3 | > 500 | 164 to 166
Nc1c(C2=NCCS2)cnn1-c1cccc(Cl)c1Cl [Compound 1l, 2-(5-amino-1-(2,3-dichlorophenyl)-1H-pyrazol-4-yl)-4,5-dihydrothiazole] | > 100 | > 100 | <5 | 11.1 ± 2 | 11.2 | > 100 | >44.9 | > 500 | 188 to 190
c1ccc(-n2cc(C3=NCCS3)cn2)cc1 [Compound 2a, 2-(1-phenyl-1H-pyrazol-4-yl)-4,5-dihydrothiazole] | 1.1 ± 0.3 | 10.4 ± 1.1 | 166.8 | 10.7 ± 2.2 | 10.7 | 89 ± 2.6 | 17.4 | 187 ± 12.7 | 112 to 114

From publication PMC9146228, “Bioactivity of Novel Pyrazole-Thiazolines Scaffolds against Trypanosoma cruzi: Computational Approaches and 3D Spheroid Model on Drug Discovery for Chagas Disease” (Pharmaceutics, 2022)
